The values below come from patent US11518742B2 (priority 2020, dated 2022).

Structures are written as SMILES.

Series [1] can be described thus: Solid form characterisation of 5MeODMT benzoate lots (XRPD, DSC, TGA, 1H NMR).
Series [2] is described as follows: Generation of amorphous 5MeODMT benzoate and conversion on standing (XRPD, DSC). It counts as physicochemical. As to conditions: on standing / all conditions studied. As to the method: The flask was transferred to a vacuum and equilibrated to ambient temperature affording a fluffy white solid, 21-01-051 C.
The solid transformed into gum over ca. 1 hour. The sample was analysed immediately and after 20 hours held in a sealed container.

Series [3] is described as follows: Dynamic Vapour Sorption (DVS). In kind it is physicochemical. The protocol: A modified DVS isotherm of lot 20/45/006-FP (the same crystalline version) was undertaken to examine material behaviour from 60% RH and above. […] This is to obtain in-depth profiling of the material towards humidity at these elevated levels.
Temperature and humidity are important factors in the processing and storage of pharmaceuticals. DVS provides a versatile and sensitive technique for evaluating the stability of pharmaceutical formulations.
The solution was clarified into a 500 ml round bottom flask, the round bottom flask was rotated in an acetone/dry ice bath to freeze the solution in a thin layer around the flask. The ice was sublimed in vacuo at ambient temperature affording a fluffy white solid. The solid was removed from the round bottom flask and transferred to the DVS instrument. During this transfer, the solid collapsed to a sticky gum.
The sample was examined by DVS from 40% RH and cycled between 0% RH and 90% RH twice.
XRPD was collected on a portion of the sample post-lyophoilisation and post-DVS examination.

As to `COc1ccc2[nH]cc(CCN(C)C)c2c1.O=C(O)c1ccccc1` [5MeODMT benzoate 21-01-064 B], the Crystalline character entry in series [1] (predominantly Pattern C lots) is listed as “Pattern C”.
`COc1ccc2[nH]cc(CCN(C)C)c2c1.O=C(O)c1ccccc1` [5MeODMT benzoate 21-01-064 C]: in series [1] (predominantly Pattern E lots), the Crystalline character entry is on record as “Pattern E”.
As to `COc1ccc2[nH]cc(CCN(C)C)c2c1.O=C(O)c1ccccc1` [5MeODMT benzoate 21-01-064 F], in series [1] (predominantly Pattern D lots), the Crystalline character entry is on record as “Pattern D”.
In the case of `COc1ccc2[nH]cc(CCN(C)C)c2c1.O=C(O)c1ccccc1` [5MeODMT benzoate 21-01-064 E], the Crystalline character entry in series [1] (predominantly Pattern D lots) is recorded as “Pattern D”.
With `COc1ccc2[nH]cc(CCN(C)C)c2c1.O=C(O)c1ccccc1` [5MeODMT benzoate 21-01-064 E (air dried 4 hours)], the Crystalline character entry in series [1] (predominantly Pattern D lots) is reported as “Pattern D”.
For `COc1ccc2[nH]cc(CCN(C)C)c2c1.O=C(O)c1ccccc1` [Amorphous 5MeODMT benzoate], the “Stability of the amorphous form” value in series [2] was “unstable and undergoes transformation to Pattern A form under all conditions studied”; in series [2] (listed as amorphous 5MeODMT benzoate), “will convert to Pattern A form material on standing”. The “Solid form after DVS examination (XRPD)” value in series [3] (amorphous input, after DVS at 90% RH) is “concordant with Pattern A”. The Initial weight reduction entry in series [3] (amorphous lot 21-01-078, first desorption cycle) was “ca. 1.4%”. In series [3] (amorphous lot 21-01-078, second sorption, between 50% RH and 90% RH), this molecule gave a Weight increase of 0.2%. Moreover, in series [3] (amorphous, DVS examination), the Weight loss result is listed as “ca. 2%”.
Take `COc1ccc2[nH]cc(CCN(C)C)c2c1.O=C(O)c1ccccc1`: the Crystalline character result in series [1] (predominantly Pattern E lots) was “Pattern E”.
